Experimental data reported in the NIST ThermoML archive (doi:10.1016/j.jct.2019.105883).

Assay: xn = mol fraction of the nth substance listed
Conditions: 101.3 kPa, Liquid; for viscosity: Concentric cylinders viscometry; for mass density: Vibrating tube method

CCN.Cl [ethylammonium chloride] + CC(N)=O
Conditions | mass density, 313.2 K [kg/m3] | mass density, 323.2 K [kg/m3] | mass density, 333.2 K [kg/m3] | mass density, 343.2 K [kg/m3] | mass density, 353.2 K [kg/m3] | viscosity, 313.2 K [mPa·s] | viscosity, 323.2 K [mPa·s] | viscosity, 333.2 K [mPa·s] | viscosity, 343.2 K [mPa·s] | viscosity, 353.2 K [mPa·s]
x1 = 0.252 | 1041 | 1034.3 | 1027.6 | 1020.9 | 1014.2 | 32.6 | 27.8 | 21.9 | 18.4 | 15.2
x1 = 0.337 | 1042.8 | 1036.4 | 1030 | 1023.7 | 1017.3 | 58 | 39.2 | 29.1 | 23.3 | 18.6
x1 = 0.5 | 1043.8 | 1037.9 | 1032 | 1026.2 | 1020.4 | 71.5 | 48.4 | 35.8 | 28.2 | 23.5
